Experimental data taken from PubChem BioAssay (NCI).
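Results reflect a 48-hour exposure of cells in 96-well plates to compound at five concentrations. GI50 is the concentration that inhibits growth by half. TGI: total growth inhibition.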

Legend:
Assay in all cases: NCI tumour cell line growth inhibition, 48 h
ACHN renal = tested on: ACHN renal
CCRF-CEM leukemia = tested on: CCRF-CEM leukemia
SK-MEL-5 melanoma = tested on: SK-MEL-5 melanoma
NCI-H460 lung = tested on: NCI-H460 lung
IGROV1 ovarian = tested on: IGROV1 ovarian
PC-3 prostate = tested on: PC-3 prostate
SF-539 CNS = tested on: SF-539 CNS
MDA-MB-435 = tested on: MDA-MB-435
SK-MEL-2 melanoma = tested on: SK-MEL-2 melanoma
HOP-62 NSCLC = tested on: HOP-62 NSCLC

Structure (SMILES)	TGI (ACHN renal) [µM]	TGI (CCRF-CEM leukemia) [µM]	TGI (SK-MEL-5 melanoma) [µM]	TGI (NCI-H460 lung) [µM]	TGI (IGROV1 ovarian) [µM]	TGI (PC-3 prostate) [µM]	TGI (SF-539 CNS) [µM]	TGI (MDA-MB-435) [µM]	TGI (SK-MEL-2 melanoma) [µM]	GI50 (ACHN renal) [µM]	GI50 (CCRF-CEM leukemia) [µM]	GI50 (SK-MEL-5 melanoma) [µM]	GI50 (NCI-H460 lung) [µM]	GI50 (IGROV1 ovarian) [µM]	GI50 (PC-3 prostate) [µM]	GI50 (SF-539 CNS) [µM]	GI50 (HOP-62 NSCLC) [µM]	TGI (HOP-62 NSCLC) [µM]	GI50 (MDA-MB-435) [µM]	GI50 (SK-MEL-2 melanoma) [µM]
CC1C(=O)N=C2C(=CN(Cc3ccccc3)c3ccccc32)C(=O)N1C (stereo unspecified)	> 100	> 100	> 100	> 100	> 100	> 100	> 100	> 100	> 100	–	–	–	–	–	–	–	–	–	–	–
COc1ccc(C2CC(=O)Nc3c2c(C)nn3-c2nc3ccccc3[nH]2)cc1 (stereo unspecified)	> 57.4	> 27.9	3.71	5.89	5.26	48.9	4.94	6.84	9.43	3.55	2.11	1.82	2.39	2.38	3.21	2.16	2.56	6.55	2.55	3.45
CC(C)(C)Cn1c(N)nc2ccc(-c3[nH]c(C(C)(C)C)nc3-c3ccc(F)cc3)nc21	16.7	> 63	23	26.5	16.4	> 62.5	28.5	24.1	27.1	1.04	12.6	11	7.46	2.66	12.6	13.3	14.2	29	11.2	13.1
Cc1ccc(NC(=O)c2ccnc(C(F)(F)F)c2)cc1-c1cc(OCCO)nc(N2CCOCC2)c1	80.1	> 100	4.71	13.5	40	> 100	11.8	1.81	3.44	2.99	3.33	1.5	2.81	1.61	3.24	2.55	1.28	34.5	0.391	0.192
CCCCCCN1C(=O)/C(=c2\sc3n(c2=O)C2C(NN=3)N(CC)C(=O)N2CC)c2ccccc21 (stereo unspecified)	> 50	> 50	> 50	–	> 50	> 50	1.59	2.16	> 50	1.51	2.5	3.48	–	1.63	2.48	0.831	1.71	> 50	0.972	3.06
Cn1c2ccccc2c2c(=O)n(CCCC(=O)NCC(=O)OC(=NC3CCCCC3)NC3CCCCC3)c3c(-c4ccccc4)nnn3c21	> 100	57.7	31.6	> 100	33	> 100	58.1	> 100	> 100	26.3	8.36	5.98	32	2.84	22.7	19.9	15.3	36.6	25.3	33.1
CCN(CC)CCC(=O)Nc1cccc2c1C(=O)c1c(c(O)c3ccccc3c1O)C2=O	38.5	4.71	> 100	81.3	96.8	21.7	13.8	> 100	> 100	4.63	1.34	49.7	13.3	18.9	4.6	3.38	10.4	39.1	31	> 100
CCCCCC(=O)N1c2ccccc2NC2=C(C(=O)CC(c3ccc(OC)c(OC)c3)C2)C1c1ccc(C(F)(F)F)cc1 (stereo unspecified)	> 100	> 100	> 100	> 100	> 100	> 100	> 100	> 100	> 100	> 100	> 100	62.8	> 100	> 100	6.25	> 100	> 100	> 100	50.7	> 100
CCOC(=O)c1sc(=S)c2c(C(=O)c3ccccc3)c(C(=O)c3ccccc3)sc2c1C(=O)OCC	9.32	5.99	5.76	> 100	85.7	35.4	17.8	9.66	48.4	3	2.1	2.38	21	5.24	3.61	3.82	9.16	> 100	3.34	3.51
C=CCOc1cc2c(cc1C(C)c1ccc(OC)cc1)OCO2 (stereo unspecified)	> 100	> 31.7	> 56.3	–	> 100	> 100	1.34	1.91	> 100	–	–	–	–	–	–	–	–	> 62.7	–	–
N#C/C(=C\c1cn(-c2ccccc2)c2ccccc12)C(=O)O	> 100	> 100	> 100	> 100	> 100	> 100	> 100	> 100	> 100	44	99	38.4	30	49.3	58.3	39.2	39.2	> 100	39.4	28
COc1ccc(C2=NNC(c3ccc(-c4ccc(OC)cc4[N+](=O)[O-])o3)C2)cc1 (stereo unspecified)	> 100	> 100	> 100	> 100	> 100	> 100	23.1	91.3	> 100	42.2	70	72.7	46.8	59.9	83.3	10.1	30.6	> 100	25.3	> 100
C=C1C(=O)O[C@H]2[C@H]1CC/C(COC(=O)NCCc1ccc(OC)cc1)=C\CC[C@@]1(C)O[C@@H]21	3.55	7.74	19.1	35.2	7.32	21.7	4.21	11.8	21.9	1.72	1.98	6.23	12.2	2.61	8.08	1.79	12.2	27.1	3.53	8.97
